Where two headings read alike, the source gives them in different places.

In one data set the test system is human glioma cell U87. The data set is described as follows: MTT anticancer assay, U87. The class given is cell-based. The note with it: 48 h exposure, mean ± SD, dash = footnote d 'None'. As to the method:
(§1) The MTT was purchased from Sigma. Cell Cycle Analysis Kit and Apoptosis Analysis Kit were purchased from Bestbio (China). Mitochondrial membrane potential assay kit with JC-1 was purchased from Beyotime (China). All the materials were used as received without further purification unless noted specifically. The cell culture was maintained on DMEM medium (Hyclone, US) supplemented with 10% fetal bovine serum (Sijiqing, China), 100 U/mL penicillin and 100 µg/mL streptomycin in 25-cm^2 culture flasks at 37 °C humidified atmosphere with 5% CO2. Drugs were dissolved in DMSO and filtered through 0.22-µm pore-size filter units before addition to cell line appropriate media. When tumor cells were grown to log phase, diluting to 5 × 10^4 cells mL^−1 with the complete medium, 100 µL of the obtained cell suspension was added to each well of 96-well culture plates. The subsequent incubation was performed at 37 °C, 5% CO2 atmosphere for 48 h before subjecting to anti-proliferation assessment. After 48-h exposure period, 20 µL of PBS containing 5 mg·mL^−1 of MTT was added to each well. After 4 h, the medium was replaced by 150 µL DMSO to dissolve the purple formazan crystals produced. The absorbance at 492 nm of each well was measured on an ELISA plate reader. The data represented the mean of three experiments in triplicate and were expressed as means ± SD. The IC50 value was defined as the concentration at which 50% of the cells could survive. The following human tumor cell lines were used in the assay: human gastric cancer cells SGC-7901, human liver cancer cell SMMC-7721 and HepG2, human cervical cancer cell Hela and human glioma cell U87.

Data set [1] has as its system human liver cancer cell SMMC-7721. Briefly: MTT anticancer assay, SMMC-7721. The class given is cell-based. The conditions noted are these: 48 h exposure, mean ± SD. The procedure: as §1
Data set [2] concerns human gastric cancer cells SGC-7901. Briefly: MTT anticancer assay, SGC-7901. It counts as cell-based. The conditions noted are these: for IC50: Homo sapiens, SGC-7901, MTT, 48 h exposure, mean ± SD. As to the method:
as §1, with “The absorbance at 492 nm of each well was measured on an ELISA plate reader.” left out, “SD.” for “SD. The IC50 value was defined as the concentration at which 50% of the cells could survive. The following human tumor cell lines were used in the assay: human gastric cancer cells SGC-7901, human liver cancer cell SMMC-7721 and HepG2, human cervical cancer cell Hela and human glioma cell U87.”

Data set [3] has as its system human liver cancer cell HepG2. The data set is described as follows: MTT anticancer assay, HepG2. The class given is cell-based. The note with it: 48 h exposure, mean ± SD, dash = footnote d 'None'. As to the method:
as §1

Data set [4] has as its system human cervical cancer cell Hela. The data set is described as follows: MTT anticancer assay, Hela. It counts as cell-based. The conditions noted are these: read-out: IC50 Hela. The procedure:
as §1, with “The absorbance at 492 nm of each well was measured on an ELISA plate reader.” left out, “SD.” for “SD. The IC50 value was defined as the concentration at which 50% of the cells could survive. The following human tumor cell lines were used in the assay: human gastric cancer cells SGC-7901, human liver cancer cell SMMC-7721 and HepG2, human cervical cancer cell Hela and human glioma cell U87.”

Data set [5] deals with human normal gastric mucosa cell (GES-1). The data set is described as follows: Proliferative inhibition of human normal cell (MTT). It counts as cell-based. From the text:
In order to determine the selective cell toxicity of selected compounds. We subsequently conducted a proliferative inhibition assay with human normal gastric mucosa cell (GES-1).

The next data set concerns the target T1, telomerase (Homo sapiens, UniProt O14746).
T1 construct: endogenous in cells; host or cells: SGC-7901
Briefly: Telomerase activity assay (TRAP-PCR-ELISA). It counts as biochemical. The note with it: SGC-7901 cells extracts, 24-h treatment, mean ± SD. The procedure: Inhibit of telomerase activity was tested using the TRAP-PCR-ELISA assay. In detail, the SGC-7901 cells were firstly maintained in DMEM medium (GIBCO, New York) supplemented with 10% fetal bovineserum (GIBCO, NewYork), streptomycin (0.1 mg/mL) and penicillin (100 IU/mL) at 37 °C in a humidified atmosphere containing 5% CO2. After trypsinisation, 5 × 10^4 cultured cells in logarithmic growth were seeded into T25 flasks (Corning, New York) and cultured to allow to adherence. The cells were then incubated with Staurosporine (Santa Cruz, Santa Cruz) and the drugs with a series of concentration as 60, 20, 6.67, 2.22, 0.74, 0.25 and 0.082 l g/mL, respectively. After 24-h treatment, the cells were harvested by cell scraper orderly following by washed once with PBS. The cells were lysed in 150 µL RIPA cell lysis buffer (Santa Cruz, Santa Cruz) and incubated on ice for 30 min. The cellular supernatants were obtained via centrifugation at 12,000 g for 20 min at 4 °C and stored at −80 °C. The TRAP-PCR-ELISA assay was performed using a telomerase detection kit (Roche, Basel, Switzerland) according to the manufacturer’s protocol. In brief, 2 µL of cell extracts were mixed with 48 µL TRAP reaction mixtures. PCR was then initiated at 94 °C, 120 s for predenaturation and performed using 35 cycles each consisting of 94 °C for 30 s, 50 °C for 30 s, 72 °C for 90 s. Then 20 µL of PCR products were hybridised to a digoxigenin (DIG)-labeled telomeric repeat specific detection probe. And the PCR products were immobilised via the biotin-labeled primer to a streptavidin-coated microtiter plate subsequently. The immobilised DNA fragment were detected with a peroxidase-conjugated anti-DIG antibody and visualised following addition of the stop regent. The microtitre plate was assessed on TECAN Infinite M200 microplate reader (Mannedorf, Switzerland) at a wavelength of 490 nm, and the final value were presented as mean ± SD.

Data set [6] is described as follows: Octanol water partition coefficient, shake flask. It counts as physicochemical. The note with it: octanol/PBS (pH 7.4), pH 7.4, shake flask, octanol/PBS pH 7.4, 37 °C, read-out: Log p (octanole water partition coefficient). As to the method: Octanole water partition coefficients was measured by the method of shake flask with slight modification. The aqueous phase was replaced by PBS (pH 7.4). First, the phase of octanol and the aqueous were saturated with each other. Then, the mixture containing title compounds was shaken at 37 °C. After 24 h, the mixture was centrifuged at 4000 rpm for 30 min, followed by the measured with ultraviolet spectrophotometer. At last, logP values were calculated.

Where [7] appears, read: GES1, MTT, human normal gastric mucosa cell, read-out: GES-1 IC50.

T1 sequence (O14746 whole entry): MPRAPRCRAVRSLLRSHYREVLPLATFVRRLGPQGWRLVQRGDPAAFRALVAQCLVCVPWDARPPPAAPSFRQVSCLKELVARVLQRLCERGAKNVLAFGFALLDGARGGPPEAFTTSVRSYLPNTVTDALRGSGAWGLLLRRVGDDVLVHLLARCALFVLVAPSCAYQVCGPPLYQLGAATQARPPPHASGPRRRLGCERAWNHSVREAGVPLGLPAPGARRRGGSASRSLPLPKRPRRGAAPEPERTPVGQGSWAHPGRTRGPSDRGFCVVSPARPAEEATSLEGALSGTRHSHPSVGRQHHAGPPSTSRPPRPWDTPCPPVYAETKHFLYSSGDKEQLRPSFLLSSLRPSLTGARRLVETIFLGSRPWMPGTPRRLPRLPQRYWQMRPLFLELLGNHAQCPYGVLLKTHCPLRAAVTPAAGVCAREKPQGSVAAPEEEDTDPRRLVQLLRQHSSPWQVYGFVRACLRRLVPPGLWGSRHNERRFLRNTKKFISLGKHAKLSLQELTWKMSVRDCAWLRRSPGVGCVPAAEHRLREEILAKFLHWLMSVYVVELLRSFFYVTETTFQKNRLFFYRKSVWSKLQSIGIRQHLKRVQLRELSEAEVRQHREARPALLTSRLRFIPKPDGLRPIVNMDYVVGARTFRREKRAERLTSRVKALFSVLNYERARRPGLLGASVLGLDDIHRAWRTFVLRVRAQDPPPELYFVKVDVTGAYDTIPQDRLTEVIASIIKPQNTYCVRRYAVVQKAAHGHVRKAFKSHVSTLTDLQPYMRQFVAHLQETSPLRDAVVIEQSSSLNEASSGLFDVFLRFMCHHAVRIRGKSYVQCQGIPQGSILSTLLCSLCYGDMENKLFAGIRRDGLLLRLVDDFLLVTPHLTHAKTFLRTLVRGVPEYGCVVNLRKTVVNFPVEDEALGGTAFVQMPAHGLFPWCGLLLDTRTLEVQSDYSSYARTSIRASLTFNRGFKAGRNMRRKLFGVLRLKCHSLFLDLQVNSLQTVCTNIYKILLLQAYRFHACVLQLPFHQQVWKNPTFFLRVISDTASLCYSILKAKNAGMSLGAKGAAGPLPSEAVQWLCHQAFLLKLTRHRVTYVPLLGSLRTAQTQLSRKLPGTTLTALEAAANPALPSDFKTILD
T1 sequence (O60832 whole entry partner): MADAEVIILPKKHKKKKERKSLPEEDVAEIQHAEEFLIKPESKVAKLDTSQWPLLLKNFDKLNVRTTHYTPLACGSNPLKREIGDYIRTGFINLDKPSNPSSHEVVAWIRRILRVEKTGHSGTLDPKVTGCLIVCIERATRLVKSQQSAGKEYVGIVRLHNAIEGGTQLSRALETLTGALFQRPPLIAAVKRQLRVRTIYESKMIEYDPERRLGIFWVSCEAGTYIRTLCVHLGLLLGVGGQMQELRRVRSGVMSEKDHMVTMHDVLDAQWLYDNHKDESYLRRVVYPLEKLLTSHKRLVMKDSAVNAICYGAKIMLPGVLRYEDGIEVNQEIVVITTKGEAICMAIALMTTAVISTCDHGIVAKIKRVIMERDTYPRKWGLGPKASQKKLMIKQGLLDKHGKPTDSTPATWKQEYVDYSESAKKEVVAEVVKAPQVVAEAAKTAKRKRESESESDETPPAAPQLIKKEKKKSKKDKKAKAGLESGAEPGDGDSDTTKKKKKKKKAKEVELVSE
T1 sequence (Q9NX24 whole entry partner): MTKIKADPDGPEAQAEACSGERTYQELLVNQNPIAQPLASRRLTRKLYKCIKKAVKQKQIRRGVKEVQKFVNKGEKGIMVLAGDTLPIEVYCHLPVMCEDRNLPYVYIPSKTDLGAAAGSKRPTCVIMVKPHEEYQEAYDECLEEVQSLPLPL
T1 sequence (Q9NPE3 whole entry partner): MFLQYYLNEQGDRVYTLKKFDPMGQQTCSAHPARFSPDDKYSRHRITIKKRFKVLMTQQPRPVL
T1 sequence (Q9NY12 whole entry partner): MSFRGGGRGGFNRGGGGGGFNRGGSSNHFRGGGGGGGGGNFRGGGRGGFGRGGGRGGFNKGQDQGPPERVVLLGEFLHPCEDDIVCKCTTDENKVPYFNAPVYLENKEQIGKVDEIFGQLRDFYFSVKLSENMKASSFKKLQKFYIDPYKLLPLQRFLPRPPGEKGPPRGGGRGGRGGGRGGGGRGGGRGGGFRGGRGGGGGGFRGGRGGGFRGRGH

`COc1cccc2c1C(=O)c1c(O)c3c(c(O)c1C2=O)C[C@@](O)(C(=O)CO)C[C@@H]3O[C@H]1C[C@H](N)[C@H](O)[C@H](C)O1` [ADM, doxorubicin, reference compound]: the IC50 with human glioma cell U87 is 2.24 ± 0.12 µM; in data set [1], 0.81 ± 0.06 µM; in data set [2], 0.98 ± 0.27 µM; in data set [3], 2.87 ± 0.21 µM; in data set [4] (48 h), 0.21 ± 0.03 µM.
Consider `COc1cc(OC)c2c(=O)c(OCCCCN3CCN(C(=O)c4ccc(F)cc4F)CC3)c(-c3cc(OC)c(OC)c(OC)c3)oc2c1` [Compound 5a], for which the IC50 came out at 16.6 ± 1.95 µM with human glioma cell U87; 28 ± 0.98 µM in data set [1]; 16.6 ± 1.32 µM in data set [2]; 33.4 ± 1.56 µM in data set [3]; 25.5 ± 1.02 µM in data set [4] (MTT, 48 h exposure, mean ± SD); 4.18 ± 0.6 mM in data set [5] (setting [7]). Further, the IC50 against telomerase stood at 11.3 ± 0.99 µM.
Regarding `COc1cc(OC)c2c(=O)c(OCCCCN3CCN(C(=O)c4c(F)cccc4F)CC3)c(-c3cc(OC)c(OC)c(OC)c3)oc2c1` [Compound 5b], the IC50 in the data set with human glioma cell U87 is above 60 µM; in data set [1], 17 ± 0.99 µM; in data set [2] it was 10.5 ± 1.08 µM; in data set [3], 23.4 ± 1.23 µM; in data set [4] (MTT, 48 h exposure, mean ± SD), 11.3 ± 0.85 µM.
With `COc1cc(OC)c2c(=O)c(OCCCCN3CCN(C(=O)c4c(F)cccc4Cl)CC3)c(-c3cc(OC)c(OC)c(OC)c3)oc2c1` [Compound 5c], the IC50 in the data set with human glioma cell U87 stood at 25.4 ± 1.55 µM; in data set [1] it was 15.9 ± 1.01 µM; in data set [2] it was 9.31 ± 1.05 µM; in data set [3] it was 28 ± 1.84 µM; in data set [4] (MTT, 48 h exposure, mean ± SD), 9.77 ± 0.62 µM.
Consider `COc1cc(OC)c2c(=O)c(OCCCCN3CCN(C(=O)c4cccc(F)c4)CC3)c(-c3cc(OC)c(OC)c(OC)c3)oc2c1` [Compound 5d], for which the IC50 is above 60 µM in the data set with human glioma cell U87; 32 ± 1.53 µM in data set [1]; 18.5 ± 0.89 µM in data set [2]; 35.5 ± 1.65 µM in data set [3]; 31.4 ± 1.73 µM in data set [4] (MTT, 48 h exposure, mean ± SD).
With `COc1cc(OC)c2c(=O)c(OCCCCN3CCN(C(=O)c4ccccc4[N+](=O)[O-])CC3)c(-c3cc(OC)c(OC)c(OC)c3)oc2c1` [Compound 5e], the IC50 is above 60 µM with human glioma cell U87; 31.3 ± 1.63 µM in data set [1]; 13.2 ± 0.88 µM in data set [2]; above 60 µM in data set [3]; 25.1 ± 1.5 µM in data set [4] (MTT, 48 h exposure, mean ± SD); 10 ± 1.22 mM in data set [5] (setting [7]). This compound showed an IC50 against telomerase of 13.3 ± 1.25 µM.
Consider `COc1cc(OC)c2c(=O)c(OCCCCN3CCN(C(=O)c4ccc(C(F)(F)F)cc4)CC3)c(-c3cc(OC)c(OC)c(OC)c3)oc2c1` [Compound 5f], for which the logP at 24 h in data set [6] amounted to 3.35. Moreover, the IC50 with human glioma cell U87 worked out at 18 ± 0.66 µM; in data set [1], 24.2 ± 1.44 µM; in data set [2] it was 6.97 ± 0.85 µM; in data set [3], 37.4 ± 1.69 µM; in data set [4] (MTT, 48 h exposure, mean ± SD) it was 14.4 ± 0.8 µM; in data set [5] (setting [7]), 2.98 ± 0.55 mM. Also, the “activity against SGC-7901 cells (in words)” value (from here on “activity”) in data set [2] is “good activity”.
Consider `COc1cc(OC)c2c(=O)c(OCCCCN3CCN(C(=O)c4ccc([N+](=O)[O-])cc4)CC3)c(-c3cc(OC)c(OC)c(OC)c3)oc2c1` [Compound 5g], for which the IC50 in the data set on human glioma cell U87 amounted to 21.6 ± 0.9 µM; in data set [1], 23.2 ± 1.83 µM; in data set [2] it was 10.5 ± 1.01 µM; in data set [3], 40.5 ± 1.95 µM; in data set [4] (MTT, 48 h exposure, mean ± SD), 17 ± 1.51 µM.
On to `COc1cc(OC)c2c(=O)c(OCCCCN3CCN(C(=O)c4ccc(Cl)cc4)CC3)c(-c3cc(OC)c(OC)c(OC)c3)oc2c1` [Compound 5h], for which the IC50 in the data set with human glioma cell U87 worked out at 25.6 ± 1.4 µM; in data set [1], 14.1 ± 1.27 µM; in data set [2] it was 9.22 ± 1 µM; in data set [3], 35.3 ± 1.97 µM; in data set [4] (MTT, 48 h exposure, mean ± SD), 22.4 ± 0.87 µM.
As for `COc1cc(OC)c2c(=O)c(OCCCCN3CCN(C(=O)c4ccccc4)CC3)c(-c3cc(OC)c(OC)c(OC)c3)oc2c1` [Compound 5j], the logP at 24 h in data set [6] is 3.01. The IC50 with human glioma cell U87 is 20.3 ± 1.25 µM; in data set [1], 7.29 ± 0.82 µM; in data set [2], 7.56 ± 1.01 µM; in data set [3], above 60 µM; in data set [4] (MTT, 48 h exposure, mean ± SD) it was 8.3 ± 0.3 µM. The “activity” value in data set [2] is on record as “good activity”.
Consider `COc1cc(OC)c2c(=O)c(OCCCCN3CCN(C(=O)c4cc([N+](=O)[O-])cc([N+](=O)[O-])c4)CC3)c(-c3cc(OC)c(OC)c(OC)c3)oc2c1` [Compound 5k], for which the IC50 in the data set on human glioma cell U87 is 8.14 ± 0.22 µM; in data set [1] it was 4.01 ± 0.38 µM; in data set [2], 5.12 ± 0.5 µM; in data set [3], 21.2 ± 1.53 µM; in data set [4] (MTT, 48 h exposure, mean ± SD) it was 2.94 ± 0.25 µM; in data set [5] (Homo sapiens, GES1, read-out: GES-1 IC50) it was 2.55 ± 0.38 mM. This compound yielded a concentration for half-maximal inhibition (IC50) against telomerase of 1.44 ± 0.28 µM. For the same compound, the “activity” value in data set [2] was “good activity”.
`COc1cc(OC)c2c(=O)c(OCCCCN3CCN(C(=O)c4cc(Cl)ccc4[N+](=O)[O-])CC3)c(-c3cc(OC)c(OC)c(OC)c3)oc2c1` [Compound 5l]: the logP at 24 h in data set [6] was 4.82. Further, the half-inhibitory concentration (IC50) in the data set on human glioma cell U87 was 16.2 ± 1.45 µM; in data set [1] it was 5.2 ± 0.87 µM; in data set [2], 5.81 ± 1.01 µM; in data set [3], 29.1 ± 1.75 µM; in data set [4] (MTT, 48 h exposure, mean ± SD) it was 3.8 ± 0.31 µM. Moreover, the “activity” value in data set [2] is reported as “good activity”.

Source of the values: publication PMC6104605, “Discovery of new chromen-4-one derivatives as telomerase inhibitors through regulating expression of dyskerin” (Journal of Enzyme Inhibition and Medicinal Chemistry, 2018).
